Measurements published in patent publication US20100099642A1, “TGF-BETA STIMULANT AND FURTHER AGENT TO REDUCE SIDE EFFECTS” (TCP Innovations Limited, priority 2007, published 2010).
Marks after values point to notes of the source that are not given here.

Legend:
DBA/1 mice = assay: collagen-induced arthritis, footpad thickness in DBA/1 mice; format: in vivo, mouse; settings: Tamoxifen 1 mg/kg/day p.o, aspirin 30 mg/kg/day p.o, from the booster injection onwards
Protocol: Collagen-induced arthritis was induced in adult male DBA/1 mice as previously described (Courtenay et al. (1980) Nature 283:666-8). Adult (12 week old) male DBA/1 mice were divided into groups of six animals. Mice received 100 μg per mouse of bovine type II collagen (Sigma) in Freunds Complete Adjuvant (FCA) by the subcutaneous route, while a control group received an identical injection of type I collagen in FCA. Twenty-one days later, all groups of mice received an intraperitoneal booster injection containing 100 μg per mouse of the same collagen type as previously, but in the absence of adjuvant. […] Foodpad thickness was determined each day using a digital caliper EC1507 (Moore & Wright) accurate to 0.01 mm. The thickness of each footpad was determined three times on each day by a single operator blind to the treatment condition of the mouse, and the footpad thickness of each mouse on each day was reported as the mean for the three measurements for all four paws. Errors represent the standard error of the mean among the six animals in each group.

[1] = test system: anti-collagen type II antibodies; assay: direct ELISA for anti-collagen type II antibodies in serum of collagen-induced arthritis mice; format: in vivo, mouse; settings: day 39, TMX 1 mg/kg/day, aspirin 30 mg/kg/day
Protocol: (1980) Nature 283:666-8). Adult (12 week old) male DBA/1 mice were divided into groups of six animals. […] Foodpad thickness was determined each day using a digital caliper EC1507 (Moore & Wright) accurate to 0.01 mm. The thickness of each footpad was determined three times on each day by a single operator blind to the treatment condition of the mouse, and the footpad thickness of each mouse on each day was reported as the mean for the three measurements for all four paws. Errors represent the standard error of the mean among the six animals in each group. A direct ELISA for anti-collagen type II antibodies was used as an alternative assessment of the autoimmune response.

[2] = test system: anti-carbohydrate antibodies; assay: anti-carbohydrate antibody isotypes by direct ELISA in serum of men with coronary artery disease; format: in vivo, human; settings: 3 months, Tamoxifen 20 mg once daily, aspirin 75 mg once daily, mean ± SD
Protocol: (§1) Patients continued with all other medications (statins, ACE inhibitors, beta blockers, calcium channel blockers, diuretics etc), but no patients were taking warfarin or tirofiban.
The level of anti-carbohydrate antibodies was measured by direct ELISA as previously described (Mosedale et al (2006) J. Immunol. Meth. 309:182-91). […] After a final 3 washes in PBS/Tween and single wash in PBS, 200 μl of K-blue chromogenic substrate was added to each well.
as §1
The level of anti-carbohydrate antibodies was then measured by direct ELISA using the procedure given in Example 5

tgfb2 mRNA = tgfb2 mRNA level by quantitative PCR in human aortic vascular smooth muscle cells; format: cell-based; settings: 24 hrs, normalised to TBP, vs vehicle
Protocol: (1995) Cardiovasc. Res. 29:848-55). […] The cells were then incubated for either 24 hrs or 72 hrs depending on the experiment. All treatment conditions were established in triplicate. The level of mRNA for tgfb1, tgfb2 and tgfb3 were estimated by quantitative PCR. The media was removed and RNA was carefully prepared using the Ambion RNAqueous4PCR kit (Ambion#1914) in accordance with the manufacturer's instructions. The purity of the RNA and the quantity was assessed spectrophotometrically. […] This analysis results in both a gel-like image as well as electrophoretic data. Indications of RNA degradation are: (a) decreasing ratio of ribosomal bands (b) additional peaks bellow the ribosomal bands (c) Decrease in overall RNA signal (d) shift towards shorter fragments. […] Next, the RNA was converted to cDNA using the ABI High-Capacity cDNA Archive Kit, in accordance with manufacturer's instructions. The qPCR assay was then set up as follow: all cDNA samples were diluted to 180 μl total volume using Molecular grade water. Samples were vortexed to ensure thorough mixing. cDNA was aliquoted into ABI 384 well plates using a multi-channel pipette, 4.5 μl of sample into each well. Samples were assayed in triplicate (that is, nine determinations in total were made for each condition, being three separate assays on each of three replicate culture wells). The assay mix and Universal Master Mix were prepared and aliquoted across the 384 well plates 5.5 μl in each well, using a single channel pipette. The final composition of each reaction (10 μl) being: Primer/Probe assay mix (×20)=0.5 μl; Universal Master Mix=5 μl; cDNA=4.5 μl. […] Quantitative PCR was performed using several primer/probe sets. […] In all quantitative PCR experiments, several additional controls were included: firstly, a control for each sample is run with no reverse transcription to ensure the mRNA sample is not contaminated with genomic DNA (although the manual design probe/primer sets were all selected to cross an exon/exon boundary, ensuring no detectable amplicon is produced from genomic DNA templates). […]

SMILES | reduction of maximal collagen-II induced footpad swelling (DBA/1 mice) [%] | Pan IgG against bovine collagen II, median concentration in serum [1] [µg/mL] | IgG1 against bovine collagen II, median absorbance from the direct ELISA ([1]; neat serum) | IgG2a against bovine collagen II, median absorbance from the direct ELISA ([1]; neat serum) | IgG2b against bovine collagen II, median absorbance from the direct ELISA ([1]; neat serum) | IgG3 against bovine collagen II, median absorbance from the direct ELISA ([1]; neat serum) | IgG2 titre, change versus baseline [2] | IgG2 Absorbance, change versus baseline ([2]; neat serum) | Level of tgfb2 mRNA, estimated by qPCR (tgfb2 mRNA; 10 μM A) [fold-change] | Level of tgfb2 mRNA, estimated by qPCR (tgfb2 mRNA; 33 μM A) [fold-change] | Level of tgfb2 mRNA, estimated by qPCR (tgfb2 mRNA; 100 μM A) [fold-change]
CC/C(=C(\c1ccccc1)c1ccc(OCCN(C)C)cc1)c1ccccc1 [Tamoxifen] | 36 | 181 | <0.05* | 0.081* | 0.482* | 0.069* | +176% ± 43% | +0.61 ± 0.17 | – | – | –
CC(=O)Oc1ccccc1C(=O)O [Aspirin, acetylsalicylic acid] | – | – | – | – | – | – | – | – | 0.92 ± 0.10 | 1.00 ± 0.17 | 1.03 ± 0.16
